In ChEMBL document CHEMBL6121010, “Novel antileukemic compound with sub-micromolar potency against STAT5 addicted myeloid leukemia cells” (Eur J Med Chem, 2025):

Assays:
[1] = test system: KU812 cell line; assay: Antileukemic activity against human KU812 cell line assessed as inhibition of cell growth incubated for 48 hrs by MTT assay; type: functional, cell-based; details: KU812, 48 h
[2] = test system: MV4-11; assay: Antileukemic activity against human MV4-11 cell line assessed as inhibition of cell growth incubated for 48 hrs by MTT assay; type: functional, cell-based; details: MV4-11, 48 h
[3] = Cytotoxicity against Bone marrow cell (unknown origin) assessed as cell viability incubated for 48 hrs by MTT assay; type: toxicity, cell-based; details: bone marrow cells (unknown origin)
[4] = test system: KCL-22; assay: Antileukemic activity against human KCL-22 assessed as cell viability incubated for 48 hrs by MTT assay; type: functional, cell-based; details: KCL-22, 48 h
[5] = test system: K562; assay: Antileukemic activity against human K562 assessed as cell viability incubated for 48 hrs by MTT assay; type: functional, cell-based; details: K562, 48 h
[6] = Cytotoxicity against human HS-27A assessed as cell viability incubated for 48 hrs by MTT assay; type: toxicity, cell-based; details: HS-27A cells
[7] = test system: MOLM-13; assay: Antileukemic activity against human MOLM-13 assessed as cell viability incubated for 48 hrs by MTT assay; type: functional, cell-based; details: MOLM-13, 48 h

Row | Structure (SMILES) | EC50 [1] [µM] | EC50 [2] [µM] | EC50 at 48 h [3] [µM] | EC50 [4] [µM] | EC50 [5] [µM] | EC50 at 48 h [6] [µM] | EC50 [7] [µM]
1 | CC1(C)CCN(CCOc2ccc3[nH]ccc3c2)c2ccc(-c3cnccn3)cc21 | 48.1 | 7.7 | – | – | – | – | –
2 | CC1(C)CCN(CCOc2ccc3[nH]ccc3c2)c2cccc(-c3cncnc3)c21 | > 100 | 51.9 | – | – | – | – | –
3 | CC1(C)CCN(CCOc2ccc3[nH]ccc3c2)c2ccc(-c3cnc(C#N)nc3)cc21 | 2.4 | 3.5 | – | – | – | – | –
4 | CC1(C)CCN(CCOc2ccc3[nH]ccc3c2)c2ccc(-c3cccnc3)cc21 | 5.4 | 3.6 | 57.6 | 5.6 | 8.7 | 63.3 | 3.3
5 | CC1(C)CCN(CCOc2ccc3[nH]ccc3c2)c2ccc(-c3cnc(N)cn3)cc21 | 29.2 | 13.7 | – | – | – | – | –
6 | CC1(C)CCN(CCOc2ccc3[nH]ccc3c2)c2ccc(Cc3ccccn3)cc21 | 11.5 | 7.7 | – | – | – | – | –
7 | CC1(C)CCN(CCOc2ccc3[nH]ccc3c2)c2cccc(-c3cnccn3)c21 | 39.3 | 15.3 | – | – | – | – | –
8 | CC1(C)CCN(CCOc2ccc3[nH]ccc3c2)c2cccc(Cc3ccncc3)c21 | 2.7 | 1.3 | – | – | – | – | –
9 | CC1(C)CCN(CCOc2ccc3[nH]ccc3c2)c2cccc(Cc3cccnc3)c21 | 9.3 | 3.1 | – | – | – | – | –
10 | CC1(C)CCN(CCOc2ccc3[nH]ccc3c2)c2cccc(-c3ccnnc3)c21 | 23.5 | 14 | – | – | – | – | –
11 | CC1(C)CCN(CCOc2ccc3[nH]ccc3c2)c2cccc(Cc3ccccn3)c21 | 74.4 | 12.4 | – | – | – | – | –
12 | CC1(C)CCN(CCOc2ccc3[nH]ccc3c2)c2cc(Cc3ccncc3)ccc21 | – | 14.3 | – | – | – | – | –
13 | CC1(C)CCN(CCOc2ccc3[nH]ccc3c2)c2cc(Cc3ccccn3)ccc21 | > 100 | 34.2 | – | – | – | – | –
14 | CC1(C)CCN(CCOc2ccc3[nH]ccc3c2)c2cccc(-c3cnc(N)cn3)c21 | 21.2 | 14.6 | – | – | – | – | –
15 | CC1(C)CCN(CCOc2ccc3[nH]ccc3c2)c2cccc(-c3cccnc3)c21 | 5.8 | 5.9 | – | – | – | – | –
16 | CC(C)(C)c1cc(CN(C(=O)CN(Cc2ccc(Cl)cc2)S(=O)(=O)c2c(F)c(F)c(F)c(F)c2F)c2ccc(C(=O)O)cc2)cc(C(C)(C)C)c1 | 4.3 | 2.6 | 18.1 | 15.3 | 10.1 | 27.8 | 2.8
17 | CC1(C)CCN(CCOc2ccc3[nH]ccc3c2)c2ccc(-c3cnc(Cl)nc3)cc21 | 1.3 | 2.4 | – | – | – | – | –
18 | CC1(C)CCN(CCOc2ccc3[nH]ccc3c2)c2ccc(-c3cnc(N)nc3)cc21 | 2.3 | 0.4 | 14.5 | 0.3 | 2.9 | 43.9 | 0.3
19 | CC1(C)CCN(CCOc2ccc3[nH]ccc3c2)c2cc(Cc3cccnc3)ccc21 | 25.1 | 20.5 | – | – | – | – | –
20 | CC1(C)CCN(CCOc2ccc3[nH]ccc3c2)c2ccc(Cc3cccnc3)cc21 | 5.3 | 4.9 | – | – | – | – | –
21 | CC1(C)CCN(CCOc2ccc3[nH]ccc3c2)c2cccc(-c3cnc(Cl)nc3)c21 | 6.7 | 9 | – | – | – | – | –
22 | O=c1[nH]c2ccccc2n1C1CCN(CCCC(c2ccc(F)cc2)c2ccc(F)cc2)CC1 [PIMOZIDE] | 2.9 | 3.2 | 18.2 | 9.3 | 3.5 | 57.5 | 5.9
23 | CC1(C)CCN(CCOc2ccc3[nH]ccc3c2)c2ccc(-c3cncnc3)cc21 | 8.3 | 4.2 | – | – | – | – | –
24 | CC1(C)CCN(CCOc2ccc3[nH]ccc3c2)c2cccc(-c3ccncc3)c21 | 2.5 | 2.8 | – | – | – | – | –
25 | CC1(C)CCN(CCOc2ccc3[nH]ccc3c2)c2ccc(Cc3ccncc3)cc21 | 21.3 | 25.8 | – | – | – | – | –
26 | CC1(C)CCN(CCOc2ccc3[nH]ccc3c2)c2ccc(-c3ccnnc3)cc21 | 44.6 | 16 | – | – | – | – | –
27 | CC1(C)CCN(CCOc2ccc3[nH]ccc3c2)c2cccc(-c3cnc(C#N)nc3)c21 | 4.7 | 5.1 | – | – | – | – | –
28 | CC1(C)CCN(CCOc2ccc3[nH]ccc3c2)c2ccc(-c3ncccn3)cc21 | 29.5 | 4.5 | – | – | – | – | –
